Consider one compound from patent publication US20220194945A1, “Imidazolopyridine Compounds For IRE1 Inhibition” (Optikira, LLC, priority 2019, published 2022).

The subject of one test is XBP1 splicing. Description: Cellular XBP1 splicing assay. Particulars: ARPE-19 cells stably expressing XBP1-nano-luciferase, thapsigargin 150 nM, 4 hour incubation. In kind it is cell-based. Here is the method:
Cellular XBP1 Splicing Assay
ARPE-19 cells stably expressing XBP1 (a.a. 1-376) with nano-luciferase gene sequence linked so it is in frame when XBP1 is spliced, were cultured in F12 media, 10% FBS, 0.044% sodium bicarbonate, 150 μg/ml hygromycin B and seeded for assays at 5,000 cells in 384 well plates in culture media without hygromycin B and incubated at 37° C./5% CO2. After overnight incubation test compounds were added to the cell plate in a 10-point ½ log dilution series in duplicate (final DMSO concentration 0.117%). After further incubation of 30 minutes thapsigargin was added (final concentration 150 nM) and then another 4 hour incubation. A NanoLuc luciferase assay (Promega) was used according to the manufacturer's instructions to detect the luciferase and luminescence measured on a luminometer (EnVision, PerkinElmer). IC50 values calculated by fitting a sigmoidal curve to percent inhibition of control of compound concentration.
(§1) In vitro assay data are for the inhibition of RNase activity of IRE1α. Cellular assay (IC50 data) are for the XBP1 splicing assay.

The target of another test is T1, IRE1α (Homo sapiens, UniProt O75460).
T1 construct: purchased Signal Chem E31-11G
T1 sequence (O75460 468-977 limits assumed): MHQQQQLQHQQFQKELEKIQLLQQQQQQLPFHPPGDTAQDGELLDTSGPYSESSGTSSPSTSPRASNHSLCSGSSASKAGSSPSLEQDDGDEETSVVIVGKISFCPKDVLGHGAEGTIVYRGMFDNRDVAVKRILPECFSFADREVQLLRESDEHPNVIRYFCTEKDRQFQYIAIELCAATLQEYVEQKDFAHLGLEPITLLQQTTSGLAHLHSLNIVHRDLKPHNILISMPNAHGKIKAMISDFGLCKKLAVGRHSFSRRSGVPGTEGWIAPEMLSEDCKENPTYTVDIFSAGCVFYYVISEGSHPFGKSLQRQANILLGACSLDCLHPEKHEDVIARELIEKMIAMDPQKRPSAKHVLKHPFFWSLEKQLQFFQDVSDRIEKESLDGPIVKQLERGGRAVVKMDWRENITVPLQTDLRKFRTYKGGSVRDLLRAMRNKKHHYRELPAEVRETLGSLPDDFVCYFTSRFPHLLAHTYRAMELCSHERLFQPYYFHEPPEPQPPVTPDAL
Nature of the test: Biochemical assay: inhibition of RNase activity of IRE1α. The following applies: IRE1α kinase (E31-11G, Signal Chem) 0.325 nM, substrate 100 nM, 30 min pre-incubation, read-out: In vitro assay IC50. Here is the method: Biochemical Assay: Inhibition of RNase activity of IRE1α
The RNase reactions were performed in 384 well black ProxiPlate-384 Plus plates (PERKIN Elmer) using 50 mM Tris assay buffer with 0.5 mM MgCl2, 10 mM KCl, 0.03% Tween, 2 mM DTT and 1% DMSO. Test compounds were prepared on the day of assay and dispensed using D300 digital dispenser as a 10-point ½ log dilution series in duplicate, normalized to a final DMSO concentration of […]. Test compounds were pre-incubated for 30 min at room temperature with IRE1α kinase (E31-11G from Signal Chem) in 2.5 μL of assay buffer. Then 2.5 μl of assay buffer containing substrate (5′ Alexa Fluor 647-rCrArU rGrUrC rCrGrC rArGrC rGrCrArUrG-Iowa Black RQ quencher 3′) added, giving a final concentration of enzyme of 0.325 nM and of substrate of 100 nM. After 20 minutes incubation at room temperature the reactions were stopped by added 5 μL of 5M urea, incubated at room temperature for 10 minutes and fluorescence measured on a plate reader (EnVision, PerkinElmer) IC50 values calculated by fitting a sigmoidal curve to percent inhibition of control versus compound concentration.
as §1

pIC50: −log10 of the molar value.

For `CC(C)c1nc(-c2ccc(NS(=O)(=O)c3ccccc3Cl)c(F)c2)c2c(N)ncc([C@H]3CC[C@H](NC4COC4)CC3)n12` [Example 4, N-(4-(8-Amino-3-isopropyl-5-((1r,4r)-4-(oxetan-3-ylamino)cyclohexyl)imidazo[1,5-a]pyrazin-1-yl)-2-fluorophenyl)-2-chlorobenzene sulfonamide], the values for the pIC50 in the test on XBP1 splicing and on IRE1α were 8.30 and 8.19, respectively.
